Where “and” joins values, the source holds several entries; their conditions need not be identical. Equal values may be shown once. Bounds are passed on as bounds.

One data set addresses CDK2/E (Homo sapiens, UniProt P24941). Put plainly: Kinase inhibition assay CDK2/E. The following applies: at least duplicate experiments; read-out: IC50 CDK2/E. It counts as biochemical. The protocol: (§1) Newly prepared compounds 12–15 were assayed for inhibition of FLT3-ITD kinase as well as CDK4 and CDK2, known off-targets of structurally related compounds. We observed that CDK4 was sensitive to nearly all compounds with IC50 values in mid-nanomolar values.
(§2) CDK/cyclin complexes and FLT3 kinases were assayed as previously described. Protein kinase selectivity was evaluated at a single concentration (1 µM) by screening against 30 enzymes at Eurofins Discovery (France).

Data set [1] deals with K562 cells. Put plainly: Flow cytometric cell cycle analysis, K562. It counts as cell-based, Human. The following applies: 24 h; for effect on cell cycle (G1 arrest) in K562: 200 nM. Here is the method:
(§3) FLT3 inhibition causes G1-cell cycle arrest in FLT3-dependent cell lines such as MV4-11; we, therefore, performed flow cytometric analysis to evaluate cell cycle changes in MV4-11 and K562 cell lines treated with 200 nM compounds for 24 h. […] Specifically, 18 compounds arrested >85% of cells in the G1 phase, which is >30% cells in the G1 phase of the cell cycle than in control cells (Figure 4A).
(§4) Finally, we performed flow cytometric analysis with different concentrations of 15a in MV4-11 and MOLM13 (another FLT-ITD positive cell line) and K562 cell lines treated for 24 h (Figure 5).
(§5) Asynchronously growing cells were seeded into a 96-well plate and, after a preincubation period, treated with tested compounds for 24 h. The treated cells were stained directly (or after trypsinization for the adherent cells) with the 5× staining solution (17 mM trisodium citrate dihydrate, 0.5% IGEPAL CA-630, 7.5 mM spermine tetrahydrochloride, and 2.5 mM Tris; pH 7.6 containing […] propidium iodide). After the staining, DNA content was analyzed using flow cytometry using a 488 nm laser (BD FACS Verse with software BD FACSuite^TM, version 1.0.6). Cell cycle distribution was analyzed using ModFit LT (Verity Software House, version 5.0). Palbociclib, trilaciclib, and quizartinib were purchased from MedChemExpress, Monmouth Junction, NJ, USA.
For orientation: A flow cytometer gives signals particle by particle.

A further data set concerns the target CDK4/D1 (Homo sapiens, UniProt P11802). Put plainly: Kinase inhibition assay CDK4/D1. It counts as biochemical. To be noted: at least duplicate experiments; read-out: IC50 CDK4/D1. The protocol: as §1, §2
In another data set the target is T1, FLT3-ITD (Homo sapiens, UniProt P36888, ITD).
T1 sequence (P36888 27-993): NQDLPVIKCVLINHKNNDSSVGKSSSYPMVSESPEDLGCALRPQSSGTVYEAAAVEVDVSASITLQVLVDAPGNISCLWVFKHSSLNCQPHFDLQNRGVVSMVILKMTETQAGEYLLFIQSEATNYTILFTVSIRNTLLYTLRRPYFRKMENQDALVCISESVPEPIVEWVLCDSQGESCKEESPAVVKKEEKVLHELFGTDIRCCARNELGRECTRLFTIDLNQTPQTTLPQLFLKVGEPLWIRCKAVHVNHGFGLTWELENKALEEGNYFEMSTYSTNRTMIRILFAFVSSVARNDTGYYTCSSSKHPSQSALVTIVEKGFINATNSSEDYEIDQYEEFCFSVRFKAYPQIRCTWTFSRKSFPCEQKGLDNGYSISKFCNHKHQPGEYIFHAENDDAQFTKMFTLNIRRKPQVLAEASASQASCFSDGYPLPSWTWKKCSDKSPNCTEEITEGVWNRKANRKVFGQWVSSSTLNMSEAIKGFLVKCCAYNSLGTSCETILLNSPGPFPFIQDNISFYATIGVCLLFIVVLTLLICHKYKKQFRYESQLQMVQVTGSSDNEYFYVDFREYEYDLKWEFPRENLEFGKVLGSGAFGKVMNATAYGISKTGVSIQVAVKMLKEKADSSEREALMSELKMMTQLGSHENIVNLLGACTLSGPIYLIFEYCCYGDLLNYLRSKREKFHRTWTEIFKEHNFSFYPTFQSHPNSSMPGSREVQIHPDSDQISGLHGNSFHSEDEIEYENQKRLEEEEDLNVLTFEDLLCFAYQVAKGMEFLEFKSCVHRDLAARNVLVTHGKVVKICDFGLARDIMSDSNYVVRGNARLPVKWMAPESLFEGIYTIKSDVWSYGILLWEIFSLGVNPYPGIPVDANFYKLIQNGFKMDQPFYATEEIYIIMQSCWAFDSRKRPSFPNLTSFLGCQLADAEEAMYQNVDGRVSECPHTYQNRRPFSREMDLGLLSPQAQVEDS
The experiment in a line: Kinase inhibition assay FLT3-ITD. The class given is biochemical. The following applies: at least duplicate experiments; read-out: IC50 FLT3-ITD. The protocol: as §1, §2

In data set [2] the test system is MV4-11 cells. Put plainly: Resazurin-based viability assay, MV4-11. The class given is cell-based, Human. To be noted: Homo sapiens, MV4-11; 72 h, resazurin; at least duplicate experiments. The text has this: (§6) In parallel to kinase assays, we measured the effect of compounds on the viability of cancer cell lines MV4-11 and K562 using a resazurin-based assay. MV4-11 is an AML cell line dependent on a constitutively activated FLT3-ITD kinase with high sensitivity to FLT3 inhibition, K562 cells (chronic myelogenous leukemia) are independent on FLT3.
(§7) Human cell lines were obtained from the European Collection of Authenticated Cell Cultures (K562) and Cell lines service (MV4-11) and were cultivated according to the provider’s instructions. Briefly, cells were maintained in RPMI-1640 (MV4-11) or DMEM (K562) supplemented with 10% fetal bovine serum, penicillin (100 U/mL), and streptomycin (0.1 mg/mL) at 37 °C in 5% CO2. For the viability assays, cells were treated in triplicate with six different doses of each compound for 72 h. After treatments, the resazurin (Sigma Aldrich, St. Louis, MO, USA) solution was added for 4 h, and the fluorescence of resorufin corresponding to live cells was measured at 544/590 nm (excitation/emission) using a Fluoroskan Ascent microplate reader (Labsystems). The GI50 value, the drug concentration lethal to 50% of the cells, was calculated from the dose-response curves that resulted from the assays.
In general terms: The colour change of resazurin is a common sign of viable cells or microbes.

Data set [3] relates to K562 cells. Put plainly: Resazurin-based viability assay, K562. To be noted: Homo sapiens, 72 h, at least duplicate experiments. It counts as cell-based.
Text: as §6, §7

In data set [4] the test system is MV4-11 cells. Put plainly: Flow cytometric cell cycle analysis, MV4-11. It counts as cell-based, Human. To be noted: 24 h; for effect on cell cycle (G1 arrest) in MV4-11: 200 nM. The protocol:
as §3, §4, §5

The next data set relates to MOLM13 cells. Put plainly: Flow cytometric cell cycle analysis, MOLM13. It counts as cell-based. To be noted: increasing doses, 24 h. Here is the method: as §4
as §5, with “5.0).” for “5.0). Palbociclib, trilaciclib, and quizartinib were purchased from MedChemExpress, Monmouth Junction, NJ, USA.”

Data set [5] has as its system oncogenic variants of FLT3. The arrangement: method as in PMID 28418845. To be noted: cited from earlier work.

Sequence of CDK4/D1 (P11802 whole entry): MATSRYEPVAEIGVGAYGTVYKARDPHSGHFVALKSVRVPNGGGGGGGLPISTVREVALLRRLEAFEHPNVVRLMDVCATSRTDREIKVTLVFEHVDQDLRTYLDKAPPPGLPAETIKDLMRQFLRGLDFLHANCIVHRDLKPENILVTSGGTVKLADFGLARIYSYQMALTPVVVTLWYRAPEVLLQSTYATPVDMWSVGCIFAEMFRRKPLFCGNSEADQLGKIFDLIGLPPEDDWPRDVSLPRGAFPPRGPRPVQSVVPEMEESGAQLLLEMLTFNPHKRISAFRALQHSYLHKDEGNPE
Sequence of CDK4/D1 (P24385 whole entry partner): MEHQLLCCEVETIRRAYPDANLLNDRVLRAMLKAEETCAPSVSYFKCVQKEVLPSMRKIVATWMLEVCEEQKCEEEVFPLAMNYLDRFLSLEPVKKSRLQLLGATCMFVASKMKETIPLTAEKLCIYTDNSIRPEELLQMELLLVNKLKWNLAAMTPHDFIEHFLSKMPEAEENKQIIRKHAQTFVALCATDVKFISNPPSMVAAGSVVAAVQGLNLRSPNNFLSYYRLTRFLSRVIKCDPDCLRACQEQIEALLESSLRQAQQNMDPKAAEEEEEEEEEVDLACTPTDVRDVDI

Usually melting point stands for the temperature, or range, at which the solid turns liquid. In general, GI50 refers to the concentration at which growth is held to half of that of the control. `CC1CCC(n2c(C(F)(F)F)nc3cnc(Nc4ccc(N5CCNCC5)cc4)nc32)CC1` (stereo not shown) [12c]: the melting point lay within 228 to 230 °C. Moreover, the IC50 on CDK2/E was 230 nM. Moreover, the “effect on cell cycle (G1 arrest) in K562” value in the data set with K562 cells [1] is “moderate G1 block”. In addition, the IC50 on CDK4/D1 was determined as 12 nM. Further, on FLT3-ITD, the IC50 stood at 85 nM. Besides, the GI50 with MV4-11 cells [2] came to 440 nM. For the same molecule, the GI50 in the data set with K562 cells [3] turned out to be 8210 nM.

Consider `Cn1c(=O)[nH]c2nc(Nc3ccc(N4CCNCC4)cc3)ncc21` [14a], for which the values for the IC50 at CDK2/E, on CDK4/D1 and on FLT3-ITD were more than 20000 nM, more than 20000 nM and 6900 nM, respectively. For the same molecule, the “effect on cell cycle (G1 arrest) in MV4-11” value (shortened to “effect … in MV4-11”) with MV4-11 cells [4] was “did not significantly affect the cell cycle”. The GI50 in the data set on MV4-11 cells [2] is 5650 nM; with K562 cells [3] it was more than 100000 nM.

`Cn1c(=O)n(C2CCCCCCCCCCC2)c2nc(Nc3ccc(N4CCNCC4)cc3)ncc21` [14j]: the IC50 was > 1000 nM and 1020 nM on CDK2/E; 338 nM at CDK4/D1; 75 nM on FLT3-ITD. Moreover, the “effect … in MV4-11” value in the data set with MV4-11 cells [4] is “did not significantly affect the cell cycle”. The GI50 in the data set on MV4-11 cells [2] is 1810 nM; in the data set with K562 cells [3], 3590 nM.

`Cc1ccccc1-n1c(=O)n(C)c2cnc(Nc3ccc(N4CCNCC4)cc3)nc21` [14n]: the melting point fell in the range of 152 to 154 °C. Further, on CDK2/E, the IC50 came out at 540 nM. Besides, the “effect … in MV4-11” value in the data set with MV4-11 cells [4] is recorded as “did not significantly affect the cell cycle”. On CDK4/D1, the IC50 stood at 1870 nM. In addition, at FLT3-ITD, the IC50 was 2940 nM. Also, in the data set on MV4-11 cells [2], the GI50 turned out to be 1250 nM. For the same molecule, in the data set on K562 cells [3], the GI50 stood at 16700 nM.

In turn, `Cn1c(=O)n(C=Cc2ccc(F)cc2)c2nc(Nc3ccc(N4CCNCC4)cc3)ncc21` [14t] returned a melting point of 248 to 250 °C. Also, on CDK2/E, the IC50 was > 1000 nM and 7700 nM. The IC50 on CDK4/D1 stood at 216 nM. The IC50 on FLT3-ITD came to 345 nM. In addition, growth with MV4-11 cells [2] was halved (GI50) at 520 nM. Also, in the data set on K562 cells [3], growth was halved (GI50) at 2290 nM.

Take `CC(C)n1c(=O)n(C2CCCCC2)c2nc(Nc3ccc(N4CCNCC4)cc3)ncc21` [15b]: the melting point was 132 to 134 °C. Moreover, the IC50 at CDK2/E worked out at 10300 nM. At CDK4/D1, the IC50 turned out to be 2120 nM. Also, the IC50 at FLT3-ITD worked out at 68 nM. In addition, in the data set with MV4-11 cells [2], growth was halved (GI50) at 130 nM. In the data set with K562 cells [3], this molecule had a GI50 of 1510 nM.

Molecule `CC1CCC(n2c(=O)n(C(C)C)c3cnc(Nc4ccc(N5CCNCC5)cc4)nc32)CC1` (stereo not shown) [15c] returned a melting point of 264 to 266 °C. Moreover, at CDK2/E, the IC50 stood at 4140 nM. The IC50 on CDK4/D1 was found to be 1100 nM. Besides, the IC50 at FLT3-ITD stood at 40 nM. The molecule also yielded a GI50 in the data set with MV4-11 cells [2] of 130 nM. The GI50 with K562 cells [3] came out at 1450 nM.

For the molecule `CC(=O)c1c(C)c2cnc(Nc3ccc(N4CCNCC4)cn3)nc2n(C2CCCC2)c1=O` [palbociclib, reference compound], the “effect … in MV4-11” value with MV4-11 cells [4] was “significantly arrest both cell lines in the G1 phase”. Also, the “effect on cell cycle (G1 arrest) in K562” value in the data set with K562 cells [1] is recorded as “significantly arrest both cell lines in the G1 phase”.

For the molecule `CC(C)(C)c1cc(NC(=O)Nc2ccc(-c3cn4c(n3)sc3cc(OCCN5CCOCC5)ccc34)cc2)no1` [quizartinib, reference compound], the “effect … in MV4-11” value in the data set with MV4-11 cells [4] is on record as “arrested selectively only MV4-11”. Besides, the “cells in the G1 phase, MV4-11” value with MV4-11 cells [4] (increasing doses) is “up to 90%”. In the data set on K562 cells [1], the “effect on cell cycle (G1 arrest) in K562” value is given as “arrested selectively only MV4-11”. The “cell cycle changes in K562” value with K562 cells [1] (different concentrations) is recorded as “did not show any changes”. Besides, the “cells in the G1 phase, MOLM13” value in the data set on MOLM13 cells is recorded as “up to 90%”.

For `CN1CCN(c2ccc(Nc3ncc4cc5n(c4n3)C3(CCCCC3)CNC5=O)nc2)CC1` [trilaciclib], in data set [5], the “affinity to oncogenic variants of FLT3” value was “low nanomolar affinity”.

These data come from PMC9782245, “Synthesis and Structural Optimization of 2,7,9-Trisubstituted purin-8-ones as FLT3-ITD Inhibitors” (International Journal of Molecular Sciences, 2022).
